Experimental findings from ChEMBL document CHEMBL4840303, “Design, synthesis, biological evaluation and pharmacophore model analysis of novel tetrahydropyrrolo[3,4-c]pyrazol derivatives as potential TRKs inhibitors” (Eur J Med Chem, 2021) are described below.

Assay [1] has as its target High affinity nerve growth factor receptor (Homo sapiens, UniProt P04629). The assay is described as follows: Inhibition of N-terminal GST-tagged human TRKA (436 to 790 residues) expressed in baculovirus infected Sf21 cells using TK as substrate in presence of ATP measured after 30 mins by HTRF assay. For orientation: In TR-FRET formats the signal depends on donor and acceptor labels being close together.

The subject of the next assay is KM12. As to the kind of experiment: cells. The settings on record: Homo sapiens, KM12, 72 h.
The target of assay [2] is T1, BDNF/NT-3 growth factors receptor (Homo sapiens, UniProt Q16620). As to the kind of experiment: Inhibition of N-terminal GST-tagged human TRKB (456 to 822 residues) expressed in baculovirus infected Sf21 cells using TK as substrate in presence of ATP measured after 40 mins by HTRF assay.
Another assay relates to A549. The assay is described as follows: cells. The settings on record: Homo sapiens, A549, 72 h.
The next assay has as its system THLE-2. As to the kind of experiment: cells. The settings on record: Homo sapiens, THLE-2, 72 h.
The target in assay [3] is NT-3 growth factor receptor (Homo sapiens, UniProt Q16288). The assay is described as follows: Inhibition of NT3-activated full length TRKC (unknown origin) by Cell-based beta-galactosidase PathHunter assay.
The target in assay [4] is T1, BDNF/NT-3 growth factors receptor. The assay is described as follows: Inhibition of BDNF-activated full length TRKB (unknown origin) by Cell-based beta-galactosidase PathHunter assay.

Bounds are passed on as bounds.

T1 sequence (Q16620 whole entry, the tested form may be a part): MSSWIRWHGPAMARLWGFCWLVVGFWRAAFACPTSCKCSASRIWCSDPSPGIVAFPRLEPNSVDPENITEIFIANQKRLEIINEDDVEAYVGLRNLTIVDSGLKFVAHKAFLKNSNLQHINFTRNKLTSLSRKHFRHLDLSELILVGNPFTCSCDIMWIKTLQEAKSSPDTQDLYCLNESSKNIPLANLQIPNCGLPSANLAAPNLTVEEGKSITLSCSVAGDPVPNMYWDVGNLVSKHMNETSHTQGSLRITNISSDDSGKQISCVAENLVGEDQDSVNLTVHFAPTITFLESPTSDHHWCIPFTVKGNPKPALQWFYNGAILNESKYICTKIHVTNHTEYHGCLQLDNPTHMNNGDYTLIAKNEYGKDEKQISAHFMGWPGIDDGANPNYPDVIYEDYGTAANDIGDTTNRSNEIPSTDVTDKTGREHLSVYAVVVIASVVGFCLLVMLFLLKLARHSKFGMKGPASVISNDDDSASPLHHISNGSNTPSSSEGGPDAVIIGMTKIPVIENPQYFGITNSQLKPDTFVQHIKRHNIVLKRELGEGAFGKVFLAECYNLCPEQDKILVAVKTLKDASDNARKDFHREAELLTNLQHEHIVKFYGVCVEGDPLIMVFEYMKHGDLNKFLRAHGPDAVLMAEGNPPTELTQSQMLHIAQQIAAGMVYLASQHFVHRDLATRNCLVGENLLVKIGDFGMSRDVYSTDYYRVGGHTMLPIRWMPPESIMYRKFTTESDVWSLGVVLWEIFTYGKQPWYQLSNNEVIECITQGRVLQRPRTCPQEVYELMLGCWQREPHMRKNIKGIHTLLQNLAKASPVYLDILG
Chain of High affinity nerve growth factor receptor (P04629 whole entry, the tested form may be a part): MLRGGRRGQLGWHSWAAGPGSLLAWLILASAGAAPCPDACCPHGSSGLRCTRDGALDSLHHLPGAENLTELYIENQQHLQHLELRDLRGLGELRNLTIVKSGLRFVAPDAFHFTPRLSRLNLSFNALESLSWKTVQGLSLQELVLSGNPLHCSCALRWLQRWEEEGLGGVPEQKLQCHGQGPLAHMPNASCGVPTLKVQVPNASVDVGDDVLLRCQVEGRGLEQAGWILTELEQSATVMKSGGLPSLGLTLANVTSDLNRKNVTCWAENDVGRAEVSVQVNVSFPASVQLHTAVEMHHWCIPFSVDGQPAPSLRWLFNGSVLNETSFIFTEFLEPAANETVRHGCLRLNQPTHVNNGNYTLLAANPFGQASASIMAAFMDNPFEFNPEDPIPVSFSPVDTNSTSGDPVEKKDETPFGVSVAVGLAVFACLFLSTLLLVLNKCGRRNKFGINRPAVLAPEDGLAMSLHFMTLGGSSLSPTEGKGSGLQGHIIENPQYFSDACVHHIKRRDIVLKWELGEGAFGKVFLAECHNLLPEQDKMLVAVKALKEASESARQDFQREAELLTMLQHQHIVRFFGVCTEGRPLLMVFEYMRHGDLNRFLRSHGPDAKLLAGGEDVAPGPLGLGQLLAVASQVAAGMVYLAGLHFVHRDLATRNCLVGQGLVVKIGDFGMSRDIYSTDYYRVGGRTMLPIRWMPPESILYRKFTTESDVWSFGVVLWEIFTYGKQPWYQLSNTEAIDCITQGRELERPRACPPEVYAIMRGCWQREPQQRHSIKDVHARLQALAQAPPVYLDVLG
Chain of NT-3 growth factor receptor (Q16288 whole entry): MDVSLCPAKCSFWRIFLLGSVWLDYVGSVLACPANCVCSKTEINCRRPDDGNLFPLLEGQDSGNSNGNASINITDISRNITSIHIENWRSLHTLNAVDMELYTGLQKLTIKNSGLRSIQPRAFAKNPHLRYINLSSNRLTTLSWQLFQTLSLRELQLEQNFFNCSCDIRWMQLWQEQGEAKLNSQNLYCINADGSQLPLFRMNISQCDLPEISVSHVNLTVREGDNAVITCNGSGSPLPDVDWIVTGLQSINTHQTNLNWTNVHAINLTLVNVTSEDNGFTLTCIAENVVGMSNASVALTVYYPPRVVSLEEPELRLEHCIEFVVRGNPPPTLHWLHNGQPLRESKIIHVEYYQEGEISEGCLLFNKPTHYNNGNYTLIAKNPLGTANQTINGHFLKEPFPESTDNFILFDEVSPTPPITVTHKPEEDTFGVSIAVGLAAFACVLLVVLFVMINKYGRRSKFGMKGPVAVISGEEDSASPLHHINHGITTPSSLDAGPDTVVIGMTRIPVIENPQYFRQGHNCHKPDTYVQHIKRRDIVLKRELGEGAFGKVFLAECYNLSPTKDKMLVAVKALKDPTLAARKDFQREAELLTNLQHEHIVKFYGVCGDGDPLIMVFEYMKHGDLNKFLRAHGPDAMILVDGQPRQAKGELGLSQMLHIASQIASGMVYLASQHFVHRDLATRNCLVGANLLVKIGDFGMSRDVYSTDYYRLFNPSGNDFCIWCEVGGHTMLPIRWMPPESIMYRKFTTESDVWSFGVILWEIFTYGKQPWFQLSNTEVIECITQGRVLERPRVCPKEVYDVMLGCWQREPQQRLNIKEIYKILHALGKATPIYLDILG
Description for A549: Antiproliferative activity against human A549 cells assessed as inhibition of cell growth measured after 72 hrs by CCK-8 assay
Description for KM12: Antiproliferative activity against human KM12 cells assessed as inhibition of cell growth measured after 72 hrs by CCK-8 assay
Description for THLE-2: Antiproliferative activity against human THLE-2 cells assessed as inhibition of cell growth measured after 72 hrs by CCK-8 assay

Take `CN(C)c1cccc(C(=O)Nc2n[nH]c3c2CN(Cc2cccc(F)c2F)C3(C)C)c1`: the IC50 in assay [1] came to 420 nM.

For `CC1(C)c2[nH]nc(NC(=O)c3ccccc3)c2CN1Cc1cc(F)c(F)c(F)c1`, in assay [1], the IC50 was determined as 6960 nM. As to `CN1CCN(c2cccc(C(=O)Nc3n[nH]c4c3CN(Cc3cc(F)cc(F)c3)C4(C)C)c2)CC1`, the IC50 in the assay with KM12 was over 1000 nM; in assay [2], 190 nM; in assay [1] it was 150 nM. For `CC1(C)c2[nH]nc(NC(=O)c3ccccc3)c2CN1Cc1cccc([N+](=O)[O-])c1`, in assay [1], the IC50 was 600 nM. The same measure, in the same setting: the same measure for `CC1(C)c2[nH]nc(NC(=O)c3ccc(Br)cc3)c2CN1Cc1cccc(F)c1F`: 950 nM; for `CC1(C)c2[nH]nc(NC(=O)c3ccc(N4CC[N+](C)(Cc5cc(F)cc(F)c5)CC4)cc3)c2CN1Cc1cc(F)cc(F)c1`: 95 nM. Still for that read-out and setting: the same measure for `CN(C)c1ccc(C(=O)Nc2n[nH]c3c2CN(Cc2cccc(F)c2F)C3(C)C)cc1`: 69 nM; for `CC1(C)c2[nH]nc(NC(=O)c3ccccc3)c2CN1Cc1ccc(F)c(F)c1`: 680 nM.

Regarding `Cc1ccc(CN2Cc3c(NC(=O)c4ccccc4)n[nH]c3C2(C)C)cc1F`, the IC50 in assay [1] is 940 nM. Take `CC1(C)c2[nH]nc(NC(=O)c3cccc(N4CCOCC4)c3)c2CN1Cc1cc(F)cc(F)c1`: the IC50 with KM12 was over 1000 nM; in assay [2], 170 nM; in assay [1] it was 120 nM.

Turning to `CN(C)c1cccc(C(=O)Nc2n[nH]c3c2CN(Cc2cc(F)cc(F)c2)C3(C)C)c1`, the IC50 in assay [1] stood at 270 nM. For the compound `CC1(C)c2[nH]nc(NC(=O)c3ccc(N4CCOCC4)cc3)c2CN1Cc1cccc(F)c1F`, the IC50 is 88500 nM with A549; 146 nM in the assay on KM12; 35 nM in assay [2]; 29 nM in assay [1]; 49500 nM with THLE-2. On to `CC1(C)c2[nH]nc(NC(=O)c3ccc4ccccc4c3)c2CN1Cc1cccc(F)c1F`, for which, in assay [1], the IC50 is 460 nM. Still for that read-out and setting: the same measure for `CC1(C)c2[nH]nc(NC(=O)c3ccccc3)c2CN1Cc1cccc(Br)c1`: 940 nM; for `CC1(C)c2[nH]nc(NC(=O)c3ccc(F)cc3)c2CN1Cc1cc(F)cc(F)c1`: 350 nM; for `CC1(C)c2[nH]nc(NC(=O)c3ccccc3)c2CN1Cc1cccc(F)c1F`: 200 nM. Turning to `Cc1ccc(F)c(CN2Cc3c(NC(=O)c4ccccc4)n[nH]c3C2(C)C)c1`, in assay [1], the IC50 was determined as 880 nM. Still for that read-out and setting: the same measure for `CC1(C)c2[nH]nc(NC(=O)c3ccccc3)c2CN1Cc1cccc(Cl)c1`: 670 nM; for `CN(C)c1ccc(C(=O)Nc2n[nH]c3c2CN(Cc2cc(F)cc(F)c2)C3(C)C)cc1`: 96 nM. Still for that read-out and setting: the value for `CC1(C)c2[nH]nc(NC(=O)c3ccccc3)c2CN1Cc1cc(F)cc(F)c1` was 190 nM; that for `Cc1cccc(CN2Cc3c(NC(=O)c4ccccc4)n[nH]c3C2(C)C)c1` was 1100 nM; that for `CC1(C)c2[nH]nc(NC(=O)c3ccccc3)c2CN1Cc1ccccc1` was 1240 nM.

In the case of `CC1(C)c2[nH]nc(NC(=O)c3ccc4ncccc4c3)c2CN1Cc1cc(F)cc(F)c1`, the IC50 in assay [1] turned out to be 180 nM. On the same count and under the same terms, the same measure for `CC1(C)c2[nH]nc(NC(=O)c3ccc(Br)cc3)c2CN1Cc1cc(F)cc(F)c1`: 710 nM.

As for `CC1(C)c2[nH]nc(NC(=O)c3ccc(N4CCOCC4)cc3)c2CN1Cc1cc(F)cc(F)c1`, the IC50 is over 100000 nM with A549; 211 nM with KM12; 27 nM in assay [2]; 14 nM in assay [1]; over 100000 nM in the assay with THLE-2. As to `CN1CCN(c2ccc(C(=O)Nc3n[nH]c4c3CN(Cc3cccc(F)c3F)C4(C)C)cc2)CC1`, the IC50 is 64200 nM in the assay on A549; 216 nM in the assay on KM12; 23 nM in assay [2]; 17 nM in assay [1]; over 100000 nM in the assay with THLE-2. With `CC1(C)c2[nH]nc(NC(=O)c3ccccc3)c2CN1Cc1ccccc1F`, in assay [1], the IC50 amounted to 450 nM.

`CC1(C)c2[nH]nc(NC(=O)c3ccccc3)c2CN1Cc1cccc(F)c1`: the IC50 in assay [1] was 470 nM. As to `CC1(C)c2[nH]nc(NC(=O)c3ccccc3)c2CN1Cc1cccc(I)c1`, in assay [1], the IC50 was 1360 nM.

Turning to `COc1cccc(CN2Cc3c(NC(=O)c4ccccc4)n[nH]c3C2(C)C)c1`, the IC50 in assay [1] stood at 1120 nM. As to `CC1(C)c2[nH]nc(NC(=O)c3ccccc3)c2CN1Cc1cccc(C#N)c1`, the IC50 in assay [1] was found to be 980 nM. On the same count and under the same terms, the value for `CC1(C)c2[nH]nc(NC(=O)c3ccc4ccccc4c3)c2CN1Cc1cc(F)cc(F)c1` was 440 nM. In the case of `CC1(C)c2[nH]nc(NC(=O)c3ccccc3)c2CN1Cc1c(F)cccc1F`, in assay [1], the IC50 is 520 nM. Still for that read-out and setting: the value for `CN1CCN(c2cccc(C(=O)Nc3n[nH]c4c3CN(Cc3cccc(F)c3F)C4(C)C)c2)CC1` was 210 nM; that for `CC1(C)c2[nH]nc(NC(=O)c3cccc(N4CCOCC4)c3)c2CN1Cc1cccc(F)c1F` was 270 nM; that for `CC1(C)c2[nH]nc(NC(=O)c3ccccc3)c2CN1Cc1cc(C(F)(F)F)cc(C(F)(F)F)c1` was 16400 nM. As for `Cc1ncc(NC(=O)NC2c3ccccc3-c3ccccc32)c(-c2ccccc2)n1`, the results for the IC50 in assay [3] and in assay [4] were 2500 nM and over 8100 nM, respectively.

`CC1(C)c2[nH]nc(NC(=O)c3ccccc3)c2CN1Cc1cc(F)ccc1F`: the IC50 in assay [1] was 480 nM.

As to `CC1(C)c2[nH]nc(NC(=O)c3ccccc3)c2CN1Cc1ccc(F)cc1F`, in assay [1], the 50% inhibitory concentration (IC50) turned out to be 2320 nM. Still for that read-out and setting: the value for `CC1(C)c2[nH]nc(NC(=O)c3ccc(F)cc3)c2CN1Cc1cccc(F)c1F` was 210 nM; that for `CC1(C)c2[nH]nc(NC(=O)c3ccccc3)c2CN1Cc1cc(F)cc(C(F)(F)F)c1` was 1000 nM. The same measure, in the same setting: the value for `CC1(C)c2[nH]nc(NC(=O)c3ccccc3)c2CN1Cc1ccc(F)cc1` was 1180 nM.

The term IC50 denotes the concentration at which inhibition is half-maximal.
